Results as given in PMC7886681, “Characterization and Validation of Arg286 Residue of IL-1RAcP as a Potential Drug Target for Osteoarthritis” (Frontiers in Chemistry, 2021).
Bridges are numbered along the chain shown (N, C = ends). Where no end group is shown, it is not given here.

Legend:
[1] = biological target: IL-1β:IL-1RI:IL-1RAcP complex (Homo sapiens, UniProt P01584+P14778); assay: Receptor complex immunoprecipitation pull-down with IL-1β western blot; format: biochemical; conditions: for IL-1β pull down inhibition: concentration not given
Chain of IL-1β:IL-1RI:IL-1RAcP complex (P01584 117-269): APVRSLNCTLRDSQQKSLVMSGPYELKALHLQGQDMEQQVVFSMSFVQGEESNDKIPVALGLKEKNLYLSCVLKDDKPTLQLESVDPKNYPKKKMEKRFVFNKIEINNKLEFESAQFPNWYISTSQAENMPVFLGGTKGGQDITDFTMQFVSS
Chain of IL-1β:IL-1RI:IL-1RAcP complex (P14778 18-332 limits assumed): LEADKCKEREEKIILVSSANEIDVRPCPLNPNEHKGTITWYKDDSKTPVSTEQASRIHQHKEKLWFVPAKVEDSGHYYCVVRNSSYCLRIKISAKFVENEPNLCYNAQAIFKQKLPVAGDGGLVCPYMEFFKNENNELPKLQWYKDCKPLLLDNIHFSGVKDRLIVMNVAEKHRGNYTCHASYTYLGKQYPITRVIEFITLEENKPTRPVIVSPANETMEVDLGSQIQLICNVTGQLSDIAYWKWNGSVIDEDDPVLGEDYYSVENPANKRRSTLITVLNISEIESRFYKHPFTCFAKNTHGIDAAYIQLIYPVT
Description: IL-1β (20 ng μl^−1), IL-1RI (100 ng μl^−1), and 6xHis-tagged IL-1RAcP (40 ng μl^−1) were incubated with parent Peptide 1.0, a peptide variant, or the antibody inhibitor at various concentrations in 50 μl of PBS for 1 h at room temperature under rotation. In parallel, IL-1β, IL-1RI, and 6xHis-tagged IL-1RAcP were allowed to interact without parent Peptide 1.0 as a positive control. IL-1β by itself acted as a negative control. BcMag Protein G Magnetic Beads (50 μl, Bioclone) were washed 3 times with washing buffer (57.7 mM Na2HPO4, 42.3 mM NaH2PO4, pH 7.0), incubated with anti-6xHis mouse monoclonal antibody (1 μg, Abcam) for 30 min under rotation, isolated with neodymium magnets, and washed three times with washing buffer (57.7 mM Na2HPO4, 42.3 mM NaH2PO4, pH 7.0). Protein complex mixtures were incubated with the anti-His antibody decorated magnetic beads for 1 h at room temperature under rotation. Magnetic beads were separated (neodymium magnets) and washed 3X with buffer (57.7 mM Na2HPO4, 42.3 mM NaH2PO4, pH 7.0). Immunoprecipitated proteins were eluted with 20 μl of 4X sample buffer (10 min, 70°C) and analyzed by western blotting (anti-IL1β antibody).
SDS-PAGE was used to separate the immune-precipitated proteins in a 4–20% Tris-Glycine gel for 90 min at 125 V. The proteins were transferred for 2 h at 25 V onto an Immobilion PVDF membrane. After blocking the membrane using PBS containing 0.2% (w/v) I-Block and 0.1% Tween 20 for 1 h at room temperature (or overnight at 4°C), the membrane was subjected to a 2-h incubation with an anti-IL1β antibody (1:1,000, Cell Signaling Technology) while undergoing continuous agitation. The membrane was washed with PBS containing 0.1% Tween 20, then subjected to a 1-h incubation with the secondary anti-mouse horseradish-peroxidase-conjugated anti-IgG antibody (1:10,000, Invitrogen). The western blot was developed using a chemiluminescence system (SuperSignal^TM West Dura Extended Duration Substrate) and imaged using a Kodak 4000MM system.
Statistical tests (One-way ANOVA with Dunnett's Multiple Comparison adjustment) and non-linear regression of the dose response pull down peptide inhibition data were performed using GraphPad Prism.

[2] = tested on: IL-1β signaling in HEK-Blue IL-1β cells; assay: HEK-Blue IL-1β reporter cell assay (SEAP); format: cell-based, human; conditions: 2 μM peptide; IL-1β 2.5 ng/ml; triplicate
Description: HEK 293 reporter cells for human IL-1β (HEK-Blue IL-1β cells, Invivogen) were used to test the ability of peptide variants to inhibit IL-1β signaling pathway. HEK-Blue IL-1β cells were used according to manufacturer instructions. HEK-Blue IL-1β cells were cultured in Dulbecco's modified Eagle's medium (DMEM, Gibco) additioned with 10% heat inactivated fetal bovine serum (ATCC), 4.5 g/l glucose (Sigma), and 2 mM L-glutamine (ATCC) at 37°C, 5% CO2, in a humidified environment. HEK-Blue IL-1β cells (5,000 cells/well) were plated into 96-well tissue culture plates. The following day, cells were pre-treated for 1 h with peptide variants (Peptides 1.0, 1.1, 1.2, 2.0, 3.0, 4.0, and 4.3) or soluble IL-1RAcP (2 ng/μL) as a positive control. The cells were then stimulated with IL-1β at 2.5 ng/ml for 30 min. Following stimulation, the medium was changed and the inhibitors were added again to the plate. The cells were then left to incubate overnight. The next day, 160 μl of QUANTI-Blue (Invivogen) were added to each well. The plate was incubated at 37°C for 1 h. Then, the plate was placed in a spectrophotometer to detect the levels of secreted embryonic alkaline phosphatase (SEAP) in each well at a wavelength of 625–655 nm. Each peptide was tested in triplicate and an ANOVA test with Dunnett's test for multiple comparisons was performed to determine significance of inhibition.

interleukin 1β (IL-1β) [3] = biological target: T1, interleukin 1β (IL-1β) (UniProt P01584 117-269); assay: pull-down; IL-1β (20 ng/µl), IL-1RI (100 ng/µl) and 6xHis-tagged IL-1RAcP (40 ng/µl) incubated with or without peptide at various concentrations in 50 µl PBS, 1 h, room temperature; captured on anti-6xHis antibody on Protein G magnetic beads; washed in phosphate buffer pH 7.0; western blot with anti-IL-1β; band intensity relative to the control without peptide; conditions: both partners purified
T1 construct: interleukin 1β used at 20 ng/µl in the pull-down; Species is surmised as human: PDB 4DEP was used for modelling, the reporter cells are for human IL-1β and the MS search used the human database

interleukin 1β (IL-1β) [4] = biological target: T1, interleukin 1β (IL-1β); assay: cell-based or functional assay

## T C N Q SISHS R T QNQ TRTQ C LS (disulfide) [Peptide 4.2, cyclized Gln/Asn variant, cycle length 18]
[1]; 0.04 nM peptide
  IL-1β concentration in the pulled down fraction, % of positive control: 102%
[1]; 40 nM peptide
  IL-1β concentration in the pulled down fraction, % of positive control: 36%
[1]
  IL-1β pull down inhibition: higher than 45%
[2]
  difference in inhibition of IL-1β signaling versus Peptide 1.0: 42%

## T C NESISHS R TEDETRTQ C LS (disulfide) [Peptide 1.2, cyclized Peptide 1.0 variant, cycle length 18]
[1]; 0.4 nM peptide
  IL-1β concentration in the pulled down fraction, % of positive control: 60%
[1]; 4 nM peptide
  IL-1β concentration in the pulled down fraction, % of positive control: 51%
[1]; 40 nM peptide
  IL-1β concentration in the pulled down fraction, % of positive control: 35%
[1]
  IL-1β pull down inhibition: higher than 45%
[2]
  difference in inhibition of IL-1β signaling versus Peptide 1.0: 28%

## TINESISHS A TEDETRTQILS [Peptide 2.0, negative control peptide with alanine instead of arginine in position 286]
[1]; 25 nM peptide
  IL-1β in the pulled-down fraction, % of positive control: 99%

## TINESISHS R TEDETRTQILS [Peptide 1.0, synthetic peptide mimicking IL-1RAcP Arg286 hot spot region]
[1]; 12.5 nM peptide, relative to positive control without inhibitor
  IL-1β pull down: 60%
[1]; 124 and 62 nM peptide
  reduction of IL-1β pull down: 26–30%
[1]
  IL-1β pull down inhibition: higher than 45%

## TINESISHSRTEDETRMQILS [Peptide 3.0]
[1]; 0.04 nM peptide
  IL-1β concentration in the pulled down fraction, % of positive control: 112%
[1]; 40 and 4 nM peptide, relative to positive control without inhibitor
  IL-1β pull down reduced to: 8–9%
[1]; His-tagged IL-1RAcP pull-down, IL-1β western blot band intensity relative to positive control, non-linear regression of dose response, read-out: IC50, inhibition of IL-1β complex formation
  IC50: 0.304 nM
[1]
  IL-1β pull down inhibition: higher than 45%

B1: Peptide 1.0 (peptide)
peptide: TINESISHSRTEDETRTQILS
notes: Linear, 21 residues; also called parent Peptide 1.0; lead peptide; source: synthetic peptide (Peptide 2.0, Inc; Fmoc/tBu solid phase, RP-HPLC to 98% purity)
Interleukin 1β (IL-1β) [3]
  % IL-1β pull down with IL-1RAcP relative to no peptide (peptide at 12.5 nM): 60%

B2: Peptide 1.2 (peptide)
peptide: TCNESISHSRTEDETRTQCLS
modifications: disulfide 2-19
notes: IL-1RAcP stretch around Arg286 with two isoleucines replaced by cysteine; source: synthetic peptide (Peptide 2.0, Inc; Fmoc/tBu solid phase, RP-HPLC to 98% purity)
Interleukin 1β (IL-1β) [4]
  HEK-Blue IL-1β reporter cells (SEAP), inhibition of IL-1β signalling at 2 µM peptide, difference from Peptide 1.0; blocks formation of the IL-1β complex with IL-1RI and IL-1RAcP: 28%
Interleukin 1β (IL-1β) [3]
  % IL-1β pull down with IL-1RAcP relative to no peptide (peptide at 0.4 nM): 60%
  % IL-1β pull down with IL-1RAcP relative to no peptide (peptide at 4 nM): 51%
  % IL-1β pull down with IL-1RAcP relative to no peptide (peptide at 40 nM): 35%

B3: Peptide 3.0 (peptide)
peptide: TINESISHSRTEDETRMQILS
notes: IL-1RAcP stretch around Arg286 with methionine at 293; source: synthetic peptide (Peptide 2.0, Inc; Fmoc/tBu solid phase, RP-HPLC to 98% purity)
Interleukin 1β (IL-1β) [4]
  HEK-Blue IL-1β reporter cells (SEAP), inhibition of IL-1β signalling at 2 µM peptide, difference from Peptide 1.0; blocks formation of the IL-1β complex with IL-1RI and IL-1RAcP: 54%
Interleukin 1β (IL-1β) [3]
  IC50: 0.303 nM

B4: Peptide 4.2 (peptide)
peptide: TCNQSISHSRTQNQTRTQCLS
modifications: disulfide 2-19
notes: IL-1RAcP stretch around Arg286 with two cysteines for isoleucines and Gln/Asn for Glu/Asp; source: synthetic peptide (Biomatik; Fmoc/tBu solid phase, RP-HPLC to 98% purity)
Interleukin 1β (IL-1β) [4]
  HEK-Blue IL-1β reporter cells (SEAP), inhibition of IL-1β signalling at 2 µM peptide, difference from Peptide 1.0; blocks formation of the IL-1β complex with IL-1RI and IL-1RAcP: 42%
Interleukin 1β (IL-1β) [3]
  % IL-1β pull down with IL-1RAcP relative to no peptide (peptide at 40 nM): 36%
